From US7459532B2, “Variants of the TRP channel family member, LTRPC3G” (Bristol-Myers Squibb Company, priority 2003, dated 2008)
“Also recorded” adds a separate entry of the source.

Columns and labels:
HEK 293 cells = assay: Ca^2+ store depletion in LTRPC3-HA- and vector-transfected HEK 293 cells; format: cell-based
Protocol: (§1) […] (A), or 50 μM carbachol (B) was first added to LTRPC3 variant expressing HEK 293 cells in the absence of external Ca^2+. After 9 minutes, 2 mM Ca^2+ solution was added to the cell medium at the indicated times. Currents for vector transfected HEK 293 cells, and LTRPC3 variant expressing HEK 293 cells are labeled accordingly. […] Cells loaded with Fluo-4 were incubated in 1 mM Ca^2+ solution and treated with 100 μM of La^3+ (“w/La^3+”), Gd^3+ (“w/Gd^3+”) or without blockers (“w/o blocker”) for 10 min prior to the addition of 10 mM Ca^2+ to the cell medium as indicated. Curves represent averages of three independent experiments, each involving at least 8 wells per condition. Physiometric methods were performed as described in Example 7 herein.
The store-operated mechanism of LTRPC3-mediated Ca^2+ influx was tested further by passively depleting Ca^2+ stores with thapsigargin (TG), an inhibitor of microsomal Ca^2+ ATPases that pumps ions from the cytosol back into the stores. […] Following store depletion with TG, addition of Ca^2+ to the buffer induced a much larger Ca^2+ entry in LTRPC3 cells compared to the vector control cells.
Receptor-mediated Ca^2+ entry was also more pronounced in LTRPC3-HA-transfected cells. Carbachol (CCh) can activate an endogenous muscarinic receptor and trigger IP3 production, leading to store-depletion in HEK 293 cells. […]

LTRPC3 = target: T1, LTRPC3 (Homo sapiens, UniProt Q9HCF6, R1695Q); assay: FLIPR Fluo-4 Ca^2+ entry in LTRPC3-transfected HEK 293 cells; format: cell-based; conditions: for block of LTRPC3 Ca^2+ conductance/currents (in words): 1 mM Ca^2+ solution, addition of 10 mM Ca^2+; for block of LTRPC3 Ca^2+ currents: pre-treatment with 100 μM, stimulated by adding 10 mM Ca^2+
T1 construct: the complete open reading frame of LTRPC3 with a C-terminal HA tag was transiently transfected into HEK 293 cells; expressed in transfected cells; host or cells: HEK 293 (transient transfection, vector pcDNA3.1/Hygro-LTRPC3-HA)
T1 sequence (Q9HCF6 with tags, fused parts or gaps isoform Q9HCF6-2 R1670Q): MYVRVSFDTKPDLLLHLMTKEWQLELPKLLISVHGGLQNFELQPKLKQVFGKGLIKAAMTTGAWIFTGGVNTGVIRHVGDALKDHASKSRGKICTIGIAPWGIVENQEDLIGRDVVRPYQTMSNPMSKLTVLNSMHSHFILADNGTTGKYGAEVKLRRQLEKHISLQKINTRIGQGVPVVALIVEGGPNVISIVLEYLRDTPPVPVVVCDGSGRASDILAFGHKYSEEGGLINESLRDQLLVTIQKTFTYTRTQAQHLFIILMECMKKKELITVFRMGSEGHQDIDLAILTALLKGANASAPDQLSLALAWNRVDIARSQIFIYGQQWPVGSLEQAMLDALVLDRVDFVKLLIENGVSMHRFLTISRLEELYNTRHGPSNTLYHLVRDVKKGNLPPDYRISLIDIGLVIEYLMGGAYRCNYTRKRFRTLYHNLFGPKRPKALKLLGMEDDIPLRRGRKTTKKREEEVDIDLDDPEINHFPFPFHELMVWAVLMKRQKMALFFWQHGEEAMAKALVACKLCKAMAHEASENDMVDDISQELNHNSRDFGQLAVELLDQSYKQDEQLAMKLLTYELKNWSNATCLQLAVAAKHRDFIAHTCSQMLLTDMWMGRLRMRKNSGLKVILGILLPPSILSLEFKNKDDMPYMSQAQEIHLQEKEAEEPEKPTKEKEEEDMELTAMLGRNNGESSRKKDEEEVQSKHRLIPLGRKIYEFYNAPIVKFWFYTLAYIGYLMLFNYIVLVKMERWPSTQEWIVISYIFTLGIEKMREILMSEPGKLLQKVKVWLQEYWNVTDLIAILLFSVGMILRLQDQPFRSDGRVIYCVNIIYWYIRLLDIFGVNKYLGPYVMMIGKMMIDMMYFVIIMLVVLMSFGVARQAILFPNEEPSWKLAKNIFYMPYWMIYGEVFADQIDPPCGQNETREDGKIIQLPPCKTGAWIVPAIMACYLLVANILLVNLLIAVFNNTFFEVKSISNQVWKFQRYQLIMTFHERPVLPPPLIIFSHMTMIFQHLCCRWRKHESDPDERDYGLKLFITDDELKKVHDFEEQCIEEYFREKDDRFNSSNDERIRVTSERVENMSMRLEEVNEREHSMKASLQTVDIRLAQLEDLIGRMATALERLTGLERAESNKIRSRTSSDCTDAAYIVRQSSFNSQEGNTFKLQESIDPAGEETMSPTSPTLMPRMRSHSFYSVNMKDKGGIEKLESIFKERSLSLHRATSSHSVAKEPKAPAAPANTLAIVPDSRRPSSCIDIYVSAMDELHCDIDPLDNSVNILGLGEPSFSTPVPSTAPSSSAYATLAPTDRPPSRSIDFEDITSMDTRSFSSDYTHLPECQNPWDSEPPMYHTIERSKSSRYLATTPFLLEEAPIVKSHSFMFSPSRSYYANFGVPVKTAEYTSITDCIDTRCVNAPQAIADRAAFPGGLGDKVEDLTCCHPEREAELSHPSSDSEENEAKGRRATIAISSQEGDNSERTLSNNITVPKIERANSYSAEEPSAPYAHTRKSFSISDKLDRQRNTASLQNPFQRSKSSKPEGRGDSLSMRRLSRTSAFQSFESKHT
Protocol: as §1
(§2) Panels A, C and E show results obtained for vector-transfected cells, while Panels B, D and F show results obtained for TRPM3-transfected cells. […] Cells loaded with Fluo-4 were incubated in 1 mM Ca^2+ solution and treated with 100 μM of Gd^3+ (red) or without blockers (black) for 10 min prior to the addition of 10 mM Ca^2+ to the bath solution as indicated. […] Cells loaded with Fluo-4 were incubated in a nominally Ca^2+-free media and treated without blockers (black) or with 100 μM of Gd^3+ (red) for 10 min prior to the addition of 2 μM TG (Panels C and D, first arrow) or 50 μM CCh (Panels E and F, first arrow), Ca^2+ entry was stimulated by the bath addition of 10 mM Ca^2+ (second arrow). Representative traces from one of three independent experiments are shown; each trace is the mean of 12 wells per condition. Physiometric methods were performed as described in Example 10 herein.
Moreover, physiometric studies have shown that LTRPC3 is a functional Ca^2+ permeable channel (see FIGS. 18 and 19, and Example 7). LTRPC3g function was assessed using a Fluorometric Imaging Plate Reader (FLIPR™) that measures real-time intracellular fluorescence changes. Cells transiently transfected with vector or LTRPC3-HA were loaded with the cytoplasmic Ca^2+ indicator Fluoro-4 in a 1 mM Ca^2+ solution. […] The non-transfected cells were indistinguishable from the vector-transfected cells (data not shown). Therefore, LTRPC3 is a constitutively active channel capable of mediating Ca^2+ influx.
The lanthanides, gadolinium (Gd^3+) and lanthanum (La^3+), are noneselective Ca^2+-permeable channel blockers, often used as part of the characterization of overexpressed TRP channels. […] In the presence of 1 mM Ca^2+ in which endogenous SOCs is minimally activated (FIG. 18A), pre-treatment with 100 μM of La^3+ and Gd^3+ blocked LTRPC3 Ca^2+ currents, stimulated by adding 10 mM Ca^2+, by 67 and 39%, respectively.
Additional experiments were performed to further confirm the Ca^2+ store-depleted activation of LTRPC3 using Gd^3+. The effects of 100 μM Gd^3+ on Ca^2+ permeability were tested in vector- and LTRPC3-transfected cells. […] In contrast, 100 μM Gd^3+ inhibited Ca^2+ entry, induced by adding 10 mM Ca^2+, by 53% in LTRPC3-transfected cells (see FIG. 22B). Gd^3+ reduced fluorescence units in vector-transfected cells from 1470±140 to −58±8 and in LTRPC3-transfected cells from 6000±322 to 2080±199 (n=12). Fluorescence values were measured 150 seconds after adding 10 mM Ca^2+ and percent blockade was calculated as 1 minus FLTRPC3-FVector in the presence of Gd^3+ divided by FLTRPC3-FVector without blocker. The effects of Gd^3+ on LTRPC3-mediated Ca^2+ entry, induced by 10 mM Ca^2+, in the presence of thapsigargin or carbachol was also examined. Cells were incubated in nominally Ca^2+-free medium for thapsigargin and carbachol experiments. Gd^3+ inhibited Ca^2+ entry by 51% after depletion of intracellular stores with thapsigargin (see FIG. 22B). Gd^3+ reduced peak fluorescence after 10 mM Ca^2+ addition in vector-transfected cells from 26444±2410 to 1316±60 and in LTRPC3-transfected cells from 37676±2425 to 6783±250 (see FIGS. 22C and D, respectively; n=12). […]

[1] = test system: endogenous Ca^2+ entry pathways present in HEK 293 cells; assay: FLIPR Fluo-4 Ca^2+ entry in vector-transfected HEK 293 cells; format: cell-based; conditions: 100 μM
Protocol: as §2
To further address the mechanism of LTRPC3-mediated Ca^2+ entry, similar Ca^2+ addition experiments were performed on transfected cells incubated (˜30 min) in a nominally Ca^2+-free solution. Previous studies have shown that lowering extracellular Ca^2+ concentration below physiological levels can deplete intracellular Ca^2+ stores in many cell types including HEK 293 (EMBO J. 17, 4274-4282, (1998)). Incubating vector-transfected HEK 293 cells in a nominally Ca^2+-free solution gave rise to Ca^2+ entry that was dependent on the concentration of Ca^2+ added to the buffers, indicating Ca^2+ influx was mediated through endogenous SOCs in HEK293 cells (FIG. 18, left panels). In LTRPC3 cells, the Ca^2+ transients triggered by similar Ca^2+ treatment were much larger (FIG. 18, right panels).
Additional experiments were performed to further confirm the Ca^2+ store-depleted activation of LTRPC3 using Gd^3+. The effects of 100 μM Gd^3+ on Ca^2+ permeability were tested in vector- and LTRPC3-transfected cells. […] In contrast, 100 μM Gd^3+ inhibited Ca^2+ entry, induced by adding 10 mM Ca^2+, by 53% in LTRPC3-transfected cells (see FIG. 22B). Gd^3+ reduced fluorescence units in vector-transfected cells from 1470±140 to −58±8 and in LTRPC3-transfected cells from 6000±322 to 2080±199 (n=12). Fluorescence values were measured 150 seconds after adding 10 mM Ca^2+ and percent blockade was calculated as 1 minus FLTRPC3-FVector in the presence of Gd^3+ divided by FLTRPC3-FVector without blocker. […] Gd^3+ reduced peak fluorescence after 10 mM Ca^2+ addition in vector-transfected cells from 26444±2410 to 1316±60 and in LTRPC3-transfected cells from 37676±2425 to 6783±250 (see FIGS. 22C and D, respectively; n=12). […] Gd^3+ reduced peak Ca^2+ fluorescence in vector-transfected cells from 9327±466 to 453±15 and in LTRPC3-transfected cells from 14747±988 to 1975±79 (see FIGS. 22E and F, respectively; n=12).

female recipients = conditions: picogram quantities to the female vomeronasal organ; cited from earlier work
[2] = test system: nigral dopaminergic neurons; conditions: gel foam implants in the striatum; cited from earlier work
Human lung fibroblasts = assay: human lung fibroblast growth assay with Alamar Blue; format: cell-based; conditions: 3 days in basal medium
Protocol: Human lung fibroblasts are obtained from Clonetics (San Diego, Calif.) and maintained in growth media from Clonetics. Dermal microvascular endothelial cells are obtained from Cell Applications (San Diego, Calif.). For proliferation assays, the human lung fibroblasts and dermal microvascular endothelial cells can be cultured at 5,000 cells/well in a 96-well plate for one day in growth medium. The cells are then incubated for one day in 0.1% BSA basal medium. After replacing the medium with fresh 0.1% BSA medium, the cells are incubated with the test proteins for 3 days. Alamar Blue (Alamar Biosciences, Sacramento, Calif.) is added to each well to a final concentration of 10%. The cells are incubated for 4 hr. Cell viability is measured by reading in a CytoFluor fluorescence reader. For the PGE2 assays, the human lung fibroblasts are cultured at 5,000 cells/well in a 96-well plate for one day. […]

[3] = 100 μM, nominally Ca^2+-free medium, 10 mM Ca^2+ addition

## C[N+](C)(C)CCOC(N)=O [CCh, Carbachol]
HEK 293 cells; 50 μM, LTRPC3- and vector-transfected cells
  intracellular Ca^2+ response (in words): transient and rapid intracellular Ca^2+ increase

## [Gd+3] [Gd^3+, gadolinium (Gd^3+)]
LTRPC3; 100 μM for 10 min
  block of LTRPC3 Ca^2+ conductance/currents (in words): partially inhibited
LTRPC3; 100 μM for 10 min, nominally Ca^2+-free media, 2 μM TG or 50 μM CCh, 10 mM Ca^2+
  effect on Tg and CCh induced LTRPC3 variant-mediated Ca^2+ entry (in words): can be inhibited
LTRPC3; 100 μM, 1 mM Ca^2+, 150 seconds after adding 10 mM Ca^2+, n=12
  fluorescence in the presence of blocker, LTRPC3-transfected cells: 2080±199 fluorescence units
LTRPC3; 100 μM, cells in 1 mM Ca^2+, induced by adding 10 mM Ca^2+, 150 seconds after addition
  inhibition of Ca^2+ entry (percent blockade): 53%
LTRPC3; [3]
  inhibition of Ca^2+ entry after depletion of intracellular stores with carbachol: 72%
  inhibition of Ca^2+ entry after depletion of intracellular stores with thapsigargin: 51%
LTRPC3; 100 μM, nominally Ca^2+-free medium, 10 mM Ca^2+ addition, n=12
  peak Ca^2+ fluorescence in the presence of blocker after carbachol, LTRPC3-transfected cells: 1975±79
LTRPC3; 100 μM, nominally Ca^2+-free medium, after 10 mM Ca^2+ addition, n=12
  peak fluorescence in the presence of blocker after thapsigargin, LTRPC3-transfected cells: 6783±250
LTRPC3; 1 mM Ca^2+
  block of LTRPC3 Ca^2+ currents: 39%
[1]; 1 mM Ca^2+, 150 seconds after adding 10 mM Ca^2+, n=12
  fluorescence in the presence of blocker, vector-transfected cells: −58±8 fluorescence units
[1]; 1 mM Ca^2+, addition of 10 mM Ca^2+
  effect on minimal Ca^2+ influx in vector-transfected cells (in words): strongly inhibited
[1]; nominally Ca^2+-free medium, 10 mM Ca^2+ addition, n=12
  peak Ca^2+ fluorescence in the presence of blocker after carbachol, vector-transfected cells: 453±15
[1]; nominally Ca^2+-free medium, after 10 mM Ca^2+ addition, n=12
  peak fluorescence in the presence of blocker after thapsigargin, vector-transfected cells: 1316±60

## [La+3] [La^3+, lanthanum (La^3+)]
LTRPC3; 100 μM for 10 min
  block of LTRPC3 Ca^2+ conductance/currents (in words): inhibited; also recorded: more potent
LTRPC3; 1 mM Ca^2+
  block of LTRPC3 Ca^2+ currents: 67%

## C[C@@]12C=CC[C@H]1[C@@H]1CCC3=CC(=O)CC[C@]3(C)[C@H]1CC2 [androstadienone]
Female recipients
  nervousness, tension and other negative feelings: significant reduction

## C/C=C(/C)C(=O)O[C@H]1C(C)=C2[C@H]([C@@H]1OC(=O)CCCCCCC)[C@@](C)(OC(C)=O)C[C@H](OC(=O)CCC)[C@@]1(O)[C@H]2OC(=O)[C@@]1(C)O [thapsigargin]
HEK 293 cells; 2 μM, LTRPC3-HA- and vector-transfected cells
  depletion of Ca^2+ stores (in words): equivalently depleted Ca^2+ stores

## FGF-2: FGF-2 (basic FGF), growth factor used as comparator
[2]
  protection of nigral dopaminergic neurons from the toxicity associated with MPTP exposure: near complete protection
Human lung fibroblasts
  concentration at which stimulation of fibroblast growth should be shown: 10 to 2500 ng/mL
